Experimental data taken from patent US4156016A, “Indole compounds and process for their preparation” (Hoffmann-La Roche Inc., priority 1977, dated 1979).
Like-named read-outs stand apart in the source and are kept apart here.

Tests used:
Prostaglandin synthetase = target: T1, Prostaglandin synthetase (Ovis aries, UniProt P05979); assay: Prostaglandin synthetase inhibition; type: biochemical; details: read-out: PG synthetase IC50
T1 construct: from tissue
T1 sequence (P05979 25-600): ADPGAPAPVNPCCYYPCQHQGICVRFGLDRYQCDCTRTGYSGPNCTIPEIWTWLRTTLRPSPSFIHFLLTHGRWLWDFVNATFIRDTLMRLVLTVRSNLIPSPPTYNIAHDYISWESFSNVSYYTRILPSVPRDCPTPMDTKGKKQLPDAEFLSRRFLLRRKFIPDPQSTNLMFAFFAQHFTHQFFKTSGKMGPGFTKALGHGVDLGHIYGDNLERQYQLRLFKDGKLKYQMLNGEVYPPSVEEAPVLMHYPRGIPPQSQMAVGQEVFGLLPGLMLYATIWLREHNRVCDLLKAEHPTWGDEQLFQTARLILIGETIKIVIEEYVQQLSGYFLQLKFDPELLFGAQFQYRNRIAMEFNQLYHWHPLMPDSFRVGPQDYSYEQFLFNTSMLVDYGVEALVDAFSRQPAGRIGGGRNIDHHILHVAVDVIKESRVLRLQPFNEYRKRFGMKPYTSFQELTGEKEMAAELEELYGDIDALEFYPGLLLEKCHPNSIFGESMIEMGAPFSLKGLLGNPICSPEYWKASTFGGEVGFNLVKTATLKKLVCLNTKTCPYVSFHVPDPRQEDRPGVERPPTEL

[1] = test system: Collagen-Induced Platelet Aggregation; assay: Inhibition of collagen-induced platelet aggregation in human platelet-rich plasma; type: cell-based; details: for inhibition at 2.5 µM / inhibition at 5 µM / inhibition at 15 µM / inhibition at 25 µM / inhibition at 50 µM: read-out: Percent Inhibition
Experimental: Venous blood was collected from human volunteers in siliconized 20 ml. […] Platelet rich plasma (PRP) was separated from the red blood cells by centrifugation at 180×g for 15 minutes at room temperature. Platelet poor plasma (PPP) was prepared by centrifuging PRP at 1000×g for 2 minutes.
Techniques established by Born et al., J. Physiol. […] PRP (1 ml.) was added to a siliconized cuvette containing a siliconized stirring bar and placed in a densitometer maintained at 37° C. and stirred at 1000 RPM. Various concentrations of test compounds were added in 50 μl of saline and incubated with PRP for 5 minutes. Aggregation was initiated by the addition of sufficient concentrations of ADP (Sigma Chemical Co.), epinephrine HCl (Parke, Davis & Co., Detroit, Michigan), or human mammary gland collagen (obtained from Roosevelt Hospital, N.Y.) to give about 60% of maximum aggregation response. The light transmission through PPP was used to determine maximum response. The percent inhibition of aggregation caused by the drug was calculated from the strip chart recordings at the point of maximum collagen response.

[2] = Gastric ulcer induction (rats); design: species or system male Wistar rats; details: rat, in vivo, po
Experimental: The test is a modification of that described by Brodie et al., Gastroenterology, 53, pages 604-610 (1967). Male Wistar rats (Royal Hart Laboratories) were deprived of food for 18 hours prior to testing. Tap water was permitted ad libitum. Test compounds were administered orally four hours to autopsy. The rats were sacrificed under ethyl ether anesthesia, opened along the ventral midline and the stomachs removed. The stomach was divided along the lesser curvature, everted, rinsed in saline, and examined for the presence of focal hemorrhage. Ulcers were rated on an all or none basis for incidence and, in addition, each stomach is graded for severity of ulcers formed. Ulcer scores: 0=none, 1=trace, 2=mild, 3=moderate, and 4=severe. The results of the ulcer scores obtained were subjected to statistical analysis by the student `t` test.

[3] = Toxicity (general statement)

N#Cc1[nH]c2ccc(C(O)(C(F)(F)F)C(F)(F)F)cc2c1-c1ccccc1 [nitrile, 3-Phenyl-5-[2,2,2-trifluoro-1-hydroxy-1-(trifluoromethyl)ethyl]indole-2-carbonitrile]
IC50 (Prostaglandin synthetase): 0.5 µM
Δ light transmission ([1]; 2.5 μM, Expt. I): 49 units
Δ light transmission ([1]; 2.5 μM, Expt. II): 50 units
Δ light transmission ([1]; 5 μM, Expt. I): 24 units
Δ light transmission ([1]; 5 μM, Expt. II): 20 units
Δ light transmission ([1]; 15 μM, Expt. I): 8 units
Δ light transmission ([1]; 15 μM, Expt. II): 7 units
Δ light transmission ([1]; 25 μM, Expt. I): 5 units
Δ light transmission ([1]; 25 μM, Expt. II): 5 units
Δ light transmission ([1]; 50 μM, Expt. I): 4 units
Δ light transmission ([1]; 50 μM, Expt. II): 3 units
inhibition at 2.5 µM ([1]; Homo sapiens, Platelet, 2.5 μM, Expt. I): 24.6%
inhibition at 2.5 µM ([1]; Homo sapiens, Platelet, 2.5 μM, Expt. II): 16.7%
inhibition at 5 µM ([1]; Homo sapiens, Platelet, 5 μM, Expt. I): 63.1%
inhibition at 5 µM ([1]; Homo sapiens, Platelet, 5 μM, Expt. II): 66.6%
inhibition at 15 µM ([1]; Homo sapiens, Platelet, 15 μM, Expt. I): 87.7%
inhibition at 15 µM ([1]; Homo sapiens, Platelet, 15 μM, Expt. II): 88.3%
inhibition at 25 µM ([1]; Homo sapiens, Platelet, 25 μM, Expt. I): 92.4%
inhibition at 25 µM ([1]; Homo sapiens, Platelet, 25 μM, Expt. II): 91.6%
inhibition at 50 µM ([1]; Homo sapiens, Platelet, 50 μM, Expt. I): 93.8%
inhibition at 50 µM ([1]; Homo sapiens, Platelet, 50 μM, Expt. II): 95%
IC50 ([1]; Homo sapiens, Platelet, Table 7, read-out: Inhibition of collagen-induced platelet aggregation, Activity IC50): 3.5 µM
IC50 ([1]; incubation in human citrated platelet-rich plasma, read-out: IC50 collagen): 3.5 µM
TD50 at 4 h [2]: > 250 mg/kg
toxicity (in words) [3]: low in toxicity
